In data set [1] the test system is human acute promyeloleukemia (HL60). As to the kind of experiment: Inhibition of proliferation of cancer cells in culture (Test Examples 1 and 3). The format is cell-based. Here is the method: (§1) A culture medium for cancer cells was put into test tubes. To the culture medium in each tube, there was transplanted each of such various mouse cancer cells or human cancer cells as shown in Table 1 below. The cells so transplanted were cultivated under the conditions at 37°C in an air atmosphere containing 5 % CO2. To the medium containing the cancer cells so cultivated, there was added said Compounds A, B, D, E or F of this invention at different concentrations, as the test compound. […] As the comparative compound, adriamycin now clinically used was tested to repeat the test in the same way.
(§2) Namely, they are mouse colon cancer (colon 26), mouse B-cell lymphoma (LB32T), mouse lymphoma (L-1210), human cervical cancer (HeLa), human acute promyeloleukemia (HL60), human prostatic cancer (PC3), human pudendal squamous cell carcinoma (A431), human pulmonary carcinoma (PC6), human mastocarcinoma (MCF7), human esophageal carcinoma (TT), human prostatic cancer (LNcap) and human colon cancer (DLD-1).
(§3) The test method and the nature of cancer cells to be tested are the same as those in Test Example 1 given hereinbefore. In this Test Example 3, however, eight kinds of cancer cells indicated in Table 3 below are used, among the twelve kinds of cancer cells which were used in Test Example 1.
(§4) As the test results of measurement, the evaluated values of the concentration of each test compound which could inhibit the proliferation of cancer cells by 50 % (namely, 50 % inhibitory concentration:IC50, µg/ml) are given in Table 3.

Data set [2] concerns human cervical cancer (HeLa). The description is as above. The format is cell-based. On the procedure: as §1, §2, §3, §4
The subject of data set [3] is human colon cancer (DLD-1). The data set is described as above. The format is cell-based. Particulars: for IC50: Homo sapiens. Here is the method: as §1, §2, §3, §4
Data set [4] relates to human prostatic cancer (LNcap). The description is as above. The format is cell-based. Here is the method:
as §1, §2, §3, §4

Data set [5] has as its system human prostatic cancer (PC3). The description is as above. In kind it is cell-based. Particulars: for IC50: Homo sapiens. Here is the method:
as §1, §2, §3, §4

Data set [6] relates to mouse B-cell lymphoma (LB32T). The data set is described as above. In kind it is cell-based. Here is the method: as §1, §2, §3, §4
For data set [7], the system named is mouse colon cancer (colon 26). The description is as above. In kind it is cell-based. Here is the method: as §1, §2, §3, §4
Another data set relates to mouse lymphoma (L-1210). The data set is described as above. The format is cell-based. Here is the method:
as §1, §2, §3, §4

Data set [8] deals with human esophageal carcinoma (TT). The data set is described as follows: Inhibition of proliferation of cancer cells in culture (Test Example 1). In kind it is cell-based. Particulars: 72 hours cultivation, read-out: Concentration of test compound to inhibit the proliferation of cancer cells by 50 %. On the procedure: as §1, §2
Data set [9] has as its system human mastocarcinoma (MCF7). The data set is described as above. The format is cell-based. Particulars: 72 hours cultivation, read-out: Concentration of test compound to inhibit the proliferation of cancer cells by 50 %. Here is the method:
as §1, §2

Data set [10] deals with human pudendal squamous cell carcinoma (A431). The data set is described as above. Particulars: A-431, 72 hours cultivation, read-out: Concentration of test compound to inhibit the proliferation of cancer cells by 50 %. The format is cell-based. Here is the method: as §1, §2
The subject of data set [11] is human pulmonary carcinoma (PC6). The data set is described as above. The format is cell-based. Particulars: 72 hours cultivation, read-out: Concentration of test compound to inhibit the proliferation of cancer cells by 50 %. On the procedure: as §1, §2
For the next data set, the system named is ICR mice. The data set is described as follows: Acute toxicity in mice, survival after intraperitoneal administration (Test Example 2). On the procedure:
In this Test Example, the acute toxicity of Compound A of this invention as administered to mice was evaluated. […] By way of comparison, similar test was carried out with adriamycin (in the form of hydrochloride) .

The test system of data set [12] is all human cancer cells as tested. As to the kind of experiment: Inhibition of proliferation of cancer cells in culture, all human cancer cells as tested. In kind it is cell-based. On the procedure:
as §1
Namely, they are mouse colon cancer (colon 26), mouse B-cell lymphoma (LB32T), mouse lymphoma (L-1210), human cervical cancer (HeLa), human acute promyeloleukemia (HL60), human prostatic cancer (PC3), human pudendal squamous cell carcinoma (A431), human pulmonary carcinoma (PC6), human mastocarcinoma (MCF7), human esophageal carcinoma (TT), human prostatic cancer (LNcap) and human colon cancer (DLD-1). […]

[13] abbreviates: HL-60, 72 hours cultivation, Test Example 1, read-out: Concentration of test compound to inhibit the proliferation of cancer cells by 50 %, IC50.
[14] abbreviates: 72 hours cultivation, Test Example 1, read-out: Concentration of test compound to inhibit the proliferation of cancer cells by 50 %, IC50.
Setting [15] is: Test Example 1, relative to adriamycin.
[16] abbreviates: LNcap, 72 hours cultivation, Test Example 1, read-out: Concentration of test compound to inhibit the proliferation of cancer cells by 50 %, IC50.
Where [17] appears, read: colon26, 72 hours cultivation, Test Example 1, read-out: Concentration of test compound to inhibit the proliferation of cancer cells by 50 %, IC50.
The mark [18] stands for this setting: L1210, 72 hours cultivation, Test Example 1, read-out: Concentration of test compound to inhibit the proliferation of cancer cells by 50 %, IC50.
Where [19] appears, read: ICR, mouse, in vivo, ip, 14 days.
[20] abbreviates: Test Example 3, Compounds N to T used as trifluoroacetate, read-out: IC50.

Structures are written as SMILES. Values after ≈ are worked out from the molar mass of the structure shown. Where two headings read alike, the source gives them in different places.

Consider `C[C@@H]1O[C@@H](Oc2c(O)c3c(c4cccnc24)C(=O)c2ccccc2C3=O)[C@H](F)[C@H](O)[C@@H]1O` [Compound A, 5-(2,6-dideoxy-2-fluoro-α-L-talopyranosyloxy)-6-hydroxynaphtho[2,3-f]quinoline-7,12-dione], for which the IC50 in data set [1] (setting [13]) is 0.36 µg/mL (≈ 0.819 µM); in data set [2] (setting [14]), 0.46 µg/mL (≈ 1.05 µM); in data set [3] (setting [14]), 0.12 µg/mL (≈ 0.273 µM); in [4] (setting [16]) it was 0.28 µg/mL (≈ 0.637 µM); in data set [5] (setting [14]), 0.16 µg/mL (≈ 0.364 µM); in [6] (setting [14]) it was 0.43 µg/mL (≈ 0.979 µM). In addition, the IC50 amounted to 0.32 µg/mL (≈ 0.728 µM) in [7] (setting [17]); 0.59 µg/mL (≈ 1.34 µM) in the data set with mouse lymphoma (L-1210) (setting [18]); 3.16 µg/mL (≈ 7.19 µM) in data set [8]; 2.23 µg/mL (≈ 5.08 µM) in [9]; 3.36 µg/mL (≈ 7.65 µM) in data set [10]; 4.34 µg/mL (≈ 9.88 µM) in data set [11]. In addition, the “anticancer activities against DLD-1, times higher than those of adriamycin” value in [3] (setting [15]) is 16 times. Besides, the “anticancer activities against PC3, times higher than those of adriamycin” value in [5] (setting [15]) is 5.6 times. Besides, the “Survival day(s) of respective mice” value with ICR mice (setting [19]) is >14 (all mice) day(s). In addition, the “dosage at which the total number of mice survived for 14 days” value in the data set with ICR mice (setting [19]) amounted to 4 mg/mouse.
As for `COc1c2c(c3cccnc3c1O[C@@H]1O[C@@H](C)[C@@H](O)[C@@H](O)[C@H]1F)C(=O)c1ccccc1C2=O` [5-(2,6-dideoxy-2-fluoro-α-L-talopyranosyloxy)-6-methoxy-naphtho[2,3-f]-quinoline-7,12-dione], in data set [12], the IC50 is under 100 µg/mL and the anticancer activity result is “does not exhibit any appreciable anticancer activity”.
Regarding `COc1cccc2c1C(=O)c1c(O)c3c(c(O)c1C2=O)C[C@@](O)(C(=O)CO)C[C@@H]3O[C@H]1C[C@H](N)[C@H](O)[C@H](C)O1` [Adriamycin, reference compound], the IC50 in data set [1] (setting [13]) came out at 0.03 µg/mL (≈ 0.0552 µM); in [1] (HL-60, Test Example 3, Compounds N to T used as trifluoroacetate, read-out: IC50), 0.03 µg/mL (≈ 0.0552 µM); in [2] (setting [14]) it was 0.06 µg/mL (≈ 0.11 µM); in data set [2] (setting [20]), 0.06 µg/mL (≈ 0.11 µM); in data set [3] (setting [14]), 1.9 µg/mL (≈ 3.5 µM); in [3] (setting [20]), 3.4 µg/mL (≈ 6.26 µM). The IC50 in [4] (LNCap, Test Example 3, Compounds N to T used as trifluoroacetate, read-out: IC50) was found to be 0.1 µg/mL (≈ 0.184 µM); in data set [4] (setting [16]), 0.07 µg/mL (≈ 0.129 µM); in data set [5] (setting [14]), 0.9 µg/mL (≈ 1.66 µM); in data set [5] (setting [20]) it was 1.14 µg/mL (≈ 2.1 µM); in data set [6] (setting [14]) it was 0.03 µg/mL (≈ 0.0552 µM); in [6] (setting [20]), 0.04 µg/mL (≈ 0.0736 µM). Besides, the IC50 in [7] (Colon26, Test Example 3, Compounds N to T used as trifluoroacetate, read-out: IC50) was 0.09 µg/mL (≈ 0.166 µM); in data set [7] (setting [17]), 0.07 µg/mL (≈ 0.129 µM); with mouse lymphoma (L-1210) (setting [18]), 0.24 µg/mL (≈ 0.442 µM); with mouse lymphoma (L-1210) (L1210, Test Example 3, Compounds N to T used as trifluoroacetate, read-out: IC50) it was 0.38 µg/mL (≈ 0.699 µM); in data set [8], 1.38 µg/mL (≈ 2.54 µM); in [9], 1.02 µg/mL (≈ 1.88 µM). The IC50 is 1.33 µg/mL (≈ 2.45 µM) in [10] and 1.01 µg/mL (≈ 1.86 µM) in data set [11]. In addition, the “dosage at which the total number of mice survived for 14 days” value in the data set on ICR mice (ICR mice, intraperitoneal, 14 days) is 0.125 mg/mouse. Moreover, in the data set on ICR mice (ICR mice, intraperitoneal, dosage 0.125 mg/mouse, 4 mice per group, observed 14 days), the “Survival day(s) of respective mice” value is >14 (all mice) day(s).

The record behind these values is EP1156056A1, “5-GLYCOSYLOXY-6-HYDROXYNAPHTHO 2,3-f]QUINOLINE-7,12-DIONE HAVING ANTICANCER ACTIVITIES” (ZAIDAN HOJIN BISEIBUTSU KAGAKU KENKYU KAI, priority 1999, dated 2000).
